Laboratory results as given in patent publication US10358439B2, “DNA binding agents with a minor groove binding tail” (Board of Regents, The University of Texas System, priority 2015, dated 2019).
Where two headings read alike, the source gives them in different places.

Columns and labels:
U87 = experiment: in vitro antitumor activity, U87; assay type: cell-based; settings: U87 (U87-MG brain tumor) cells
Colo357-FG = experiment: in vitro antitumor activity, Colo357-FG; assay type: cell-based; settings: Colo357-FG cells
H441 = experiment: in vitro antitumor activity, H441; assay type: cell-based; settings: H441 cells
D54 = experiment: in vitro antitumor activity, D54; assay type: cell-based; settings: D54 cells
[1] = in vitro IC50, cells not stated; assay type: cell-based; settings: cell lines not stated
[2] = 5-mice pilot single-dose pharmacokinetic study, plasma and brain; assay type: in vivo; settings: mouse, iv, 5 mg/kg, one hour following a single ~5 mg/kg intravenous dose
Method: WP1244 has a relatively high molecular weight (MW) (981.3) having a polyamide moiety attached to the amino sugar. A previous 5-mice pilot study performed with WP1244 confirmed the presence of WP1244 in murine brain tissue, and mean normalized concentrations in the plasma and brain were 283+/−128 ng/mL (range 159-487 ng/mL) and 122+/−67.6 ng/g (range 43-203 ng/g), respectively, one hour following a single ˜5 mg/kg intravenous dose. This pilot single-dose pharmacokinetic study was followed by a complete single-dose pharmacokinetic/biodistribution study which was designed to better elucidate the plasma time-course and tissue biodistribution, particularly in brain tissue, of WP1244. This study involve the use of 55 animals and a dose of 10 mg/kg. The experiment was conducted over a 24 h interval and the methods and results are outlined below.

[3] = acute clinically observable toxicity after IV bolus; assay type: in vivo; settings: mice, 10 mg/kg intravenous bolus, up to 24 hours following dosing
Method: (§1) Mouse Plasma PK and Brain Distribution Study following Single IV Dose—WP1244 was administered intravenously by rapid IV push to 55 male CD1 mice (Charles River Lab, Wilmington, Mass.) at a dose of 10 mg/kg. Each mouse (mean weight 22.0 g, range 20.7-26.6 g) was given a volume of 0.1 mL of a 2.2 mg/mL WP1244 solution formulated in DMSO:water (50:50, v/v). Five animals were assigned to one of 11 groups segregated by time, spanning the length of the 24-hour study period. One cohort of animals was sacrificed at each of the following time points and mouse plasma and tissues of interest, were harvested for analysis. The time points were as follows: 5, 15, 30, 45 minutes, 1, 2, 4, 6, 8, 12, and 24 hours following administration by intravenous bolus. Samples (plasma and tissues) were frozen and stored at −80° C. until subsequent analysis by LC/MS/MS.

[4] = Mouse Plasma PK and Brain Distribution Study following Single IV Dose; assay type: in vivo, male CD1 mice; design: Mean peak plasma concentration / area-under-the-curve: unit not given here; settings: mice, 10 mg/kg IV; for Kp / Vd: iv, 10 mg/kg
Method: as §1
Sample preparation and drug isolation (extraction) from plasma utilized the same fundamental approach used in pharmacokinetic and biodistribution studies of other anthracyclines previously conducted by the inventors. Briefly, WP1244 was extracted from a volume (0.1 mL) of mouse plasma using a solid-phase extraction method. Liquid-liquid extraction by a chloroform: 2-propanol (80:20, v/v) mixture was utilized to isolate the analyte from mouse brain tissue. An 8-point plasma extracted calibration curve was created to span a dynamic concentration range of WP1244 of 1-1000 ng/mL (1, 2.5, 10, 25, 50, 100, 500, and 1000 ng/mL) for the quantitative measurement of WP1244 extracted from mouse plasma, while a brain tissue derived calibration curve was utilized for determination of brain tissue concentrations of drug over a range of 10-1000 ng/g tissue. Samples exceeding the dynamic range of the calibration curve were re-analyzed following dilution in extraction buffers.
Quantitative sample analysis was performed by chromatographic separation and identification/quantification using mass spectrometry (LC/MS/MS); the specific instrumentation used was an Agilent HP1100 Series liquid chromatograph in tandem with a Micromass Quattro Micro (Micro2) mass spectrometer. A Phenomenex® Luna C5, 4.6×50 mm, 3.5 μm) analytical column was used for chromatographic separation and peak resolution. As mentioned before, sample analysis utilized the same fundamental validated methods developed previously for the quantitative analysis of other anthracyclines studied by the inventors.

Compound: COc1cccc2c1C(=O)c1c(O)c3c(c(O)c1C2=O)C[C@](O)(C(C)=O)C[C@H]3OC1CC(NCc2ccc(NC(=O)c3cc(NC(=O)c4cc(NC(=O)c5cccn5C)cn4C)cn3C)cc2)C(O)C(C)O1 (stereo in doubt) [WP1243]
- IC50 (U87; Homo sapiens, U-87 MG): 8.3 nM
- IC50 (Colo357-FG; COLO 357/FG): 76.2 nM

Compound: COc1cccc2c1C(=O)c1c(O)c3c(c(O)c1C2=O)C[C@](O)(C(C)=O)C[C@H]3OC1CC(NCc2ccc(NC(=O)c3cc(NC(=O)c4cc(NC(=O)c5cc(NC=O)cn5C)cn4C)cn3C)cc2)C(O)C(C)O1 (stereo in doubt) [WP1249]
- IC50 (U87; Homo sapiens, U-87 MG): 7.7 nM
- IC50 (Colo357-FG; COLO 357/FG): 51.2 nM

Compound: COc1cccc2c1C(=O)c1c(O)c3c(c(O)c1C2=O)C[C@](O)(C(C)=O)C[C@H]3OC1CC(NCc2ccc(NC(=O)c3cc(NC(=O)c4cc(NC(=O)c5cc([N+](=O)[O-])cn5C)cn4C)cn3C)cc2)C(O)C(C)O1 (stereo in doubt) [WP1276]
- IC50 (U87; Homo sapiens, U-87 MG): 27.8 nM
- IC50 (Colo357-FG; COLO 357/FG): 443 nM

Compound: COc1cccc2c1C(=O)c1c(O)c3c(c(O)c1C2=O)C[C@@](O)(C(C)=O)C[C@H]3OC1CC(NC(=O)c2cc(NC(=O)c3cc(NC(=O)c4cccn4C)cn3C)cn2C)C(O)C(C)O1 (stereo in doubt) [WP1277]
- IC50 (U87; Homo sapiens, U-87 MG): 105 nM
- IC50 (Colo357-FG; COLO 357/FG): 4240 nM

Compound: COc1cccc2c1C(=O)c1c(O)c3c(c(O)c1C2=O)C[C@@](O)(C(C)=O)C[C@@H]3O[C@H]1C[C@H](N)[C@H](O)[C@H](C)O1 [DNR, reference compound]
- IC50 (H441): 15.9 nM
- IC50 (U87): 143 nM
- IC50 (D54): 231 nM
- IC50 (Colo357-FG): 46.4 nM

Compound: COc1cccc2c1C(=O)c1c(O)c3c(c(O)c1C2=O)C[C@](O)(C(C)=O)C[C@H]3OC1CC(NCc2ccc(NC(=O)c3cc(NC(=O)c4cc(NC(=O)c5ccccn5)cn4C)cn3C)cc2)C(O)C(C)O1 (stereo partly shown) [WP1244]
- in vitro IC50 values [1]: subnanomolar range
- IC50 (H441; Homo sapiens, NCI-H441): 0.91 nM
- IC50 (U87; Homo sapiens, U-87 MG): 0.2 nM
- IC50 (D54; Homo sapiens): 1.08 nM
- IC50 (Colo357-FG; COLO 357/FG): 3.1 nM
- concentration at 1 h ([2]; brain, read-out: mean normalized concentration in brain): 122 ng/g
- concentration at 1 h ([2]; brain, read-out: range of normalized concentration in brain): 43 to 203 ng/g
- concentration at 1 h ([2]; plasma, read-out: mean normalized concentration in plasma): 283 ng/mL
- concentration at 1 h ([2]; plasma, read-out: range of normalized concentration in plasma): 159 to 487 ng/mL
- acute clinically observable toxicity [3]: no acute clinically observable toxicity
- Kp ([4]; male, CD1, mouse, brain, 0 to 8 hour interval, read-out: fold higher concentration in brain tissue than plasma): 3 to 4
- Kp ([4]; male, CD1, mouse, brain, over the measured interval (except 5 min timepoint), read-out: brain tissue to plasma concentration ratio): > 1
- concentration at 24 h ([4]; male, CD1, mouse, brain, at 24 hours, read-out: nadir brain tissue concentration): > 100 ng/g
- Vd ([4]; male, CD1, mouse, plasma, 2-compartment model, read-out: volume of distribution Vc): 0.0097 L/kg
- Vd ([4]; male, CD1, mouse, plasma, 2-compartment model, read-out: volume of distribution Vp): 0.326 L/kg
- Vd ([4]; male, CD1, mouse, plasma, 2-compartment model, read-out: volume of distribution Vss): 0.336 L/kg
- clearance ([4]; male, CD1, mouse, plasma, 2-compartment model, read-out: Drug clearance (converted)): 0.683 mL/min/kg
- concentration at 24 h ([4]; male, CD1, mouse, plasma, 24 hours after IV bolus injection, read-out: mean nadir plasma concentration): 21.5 ng/mL
- mean peak concentration in brain tissue ([4]; at 15 minutes post dose): 915 ng/g tissue
- Mean peak plasma concentration ([4]; five minutes after drug administration): 3.7
- area-under-the-curve ([4]; plasma): 250
- time of peak concentration in brain tissue ([4]; post dose): 15 min
